{"source": "patent US20240384268A1", "about": "“Oligonucleotides” (Hudson Institute of Medical Research, priority 2021, published 2024)", "data": [{"target": "T1, human TLR9 (Homo sapiens, UniProt Q9NR96)", "T1 construct": "HA; host or cells: 293XL-hTLR9-HA (HEK293)", "T1 sequence (Q9NR96 26-1032)": "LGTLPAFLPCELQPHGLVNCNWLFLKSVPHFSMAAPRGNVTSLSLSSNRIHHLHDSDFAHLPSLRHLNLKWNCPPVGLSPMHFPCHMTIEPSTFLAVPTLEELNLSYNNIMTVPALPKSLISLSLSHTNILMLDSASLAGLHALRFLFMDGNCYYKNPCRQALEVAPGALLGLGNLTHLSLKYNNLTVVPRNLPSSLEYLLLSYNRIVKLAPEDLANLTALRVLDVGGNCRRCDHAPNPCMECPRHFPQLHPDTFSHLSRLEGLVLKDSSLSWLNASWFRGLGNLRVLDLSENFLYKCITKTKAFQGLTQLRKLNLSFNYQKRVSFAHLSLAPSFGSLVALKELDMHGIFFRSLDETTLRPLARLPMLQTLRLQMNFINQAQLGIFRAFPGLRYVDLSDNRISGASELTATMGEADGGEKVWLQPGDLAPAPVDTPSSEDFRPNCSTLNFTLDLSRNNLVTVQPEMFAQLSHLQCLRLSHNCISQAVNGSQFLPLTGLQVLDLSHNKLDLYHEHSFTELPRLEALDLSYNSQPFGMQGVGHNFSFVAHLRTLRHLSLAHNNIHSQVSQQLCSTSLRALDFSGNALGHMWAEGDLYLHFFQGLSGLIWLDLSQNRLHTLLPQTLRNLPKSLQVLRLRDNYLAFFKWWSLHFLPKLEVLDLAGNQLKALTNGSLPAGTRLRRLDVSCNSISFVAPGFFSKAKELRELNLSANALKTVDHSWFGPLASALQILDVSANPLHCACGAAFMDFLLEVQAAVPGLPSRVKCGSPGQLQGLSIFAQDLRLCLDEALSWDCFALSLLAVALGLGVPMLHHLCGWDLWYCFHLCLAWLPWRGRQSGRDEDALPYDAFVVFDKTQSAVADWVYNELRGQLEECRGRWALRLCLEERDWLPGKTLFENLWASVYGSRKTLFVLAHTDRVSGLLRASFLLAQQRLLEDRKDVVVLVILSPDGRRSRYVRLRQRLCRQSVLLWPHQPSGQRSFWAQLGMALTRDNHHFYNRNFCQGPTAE", "test": "HEK-TLR9 NF-κB-luciferase reporter, ODN2006 stimulation", "format": "cell-based", "settings": "ASO 100 nM; relative to ODN2006 only, given as fraction", "values": [{"sequence": "CATCCACCACGTCGTC (antisense; LNA-modified, pattern not given here) [EGFR-3266 LNA V1]", "TLR9 100 nM (averaged NF-κB-Luciferase level relative to ODN2006 condition)": 0.722}, {"sequence": "CCAACACTTCGTGGGG (antisense; LNA-modified, pattern not given here) [HPRT LNA-668 V1]", "TLR9 100 nM (averaged NF-κB-Luciferase level relative to ODN2006 condition)": 1.065}, {"sequence": "CCACATCCTGTGGCTC (antisense; LNA-modified, pattern not given here) [CAMSAP1-2906 LNA V1]", "TLR9 100 nM (averaged NF-κB-Luciferase level relative to ODN2006 condition)": 0.338}, {"sequence": "CCACTTGGCAGACCAT (antisense; LNA-modified, pattern not given here) [CTNN2B-1575 LNA V1]", "TLR9 100 nM (averaged NF-κB-Luciferase level relative to ODN2006 condition)": 1.112}, {"sequence": "CCAGCAGGTCAGCAAA (antisense; LNA-modified, pattern not given here) [HPRT LNA-388 KL]", "TLR9 100 nM (averaged NF-κB-Luciferase level relative to ODN2006 condition)": 0.736}, {"sequence": "CCCACTTGGCAGACCA (antisense; LNA-modified, pattern not given here) [CTNN2B-1576 LNA V1]", "TLR9 100 nM (averaged NF-κB-Luciferase level relative to ODN2006 condition)": 0.381}, {"sequence": "CCTCCCATCTCCTTCA (antisense; LNA-modified, pattern not given here) [HPRT LNA-326 V1]", "TLR9 100 nM (averaged NF-κB-Luciferase level relative to ODN2006 condition)": 1.010}, {"sequence": "CCTTGCACGTGGCTTC (antisense; LNA-modified, pattern not given here) [EGFR-1013 LNA V1]", "TLR9 100 nM (averaged NF-κB-Luciferase level relative to ODN2006 condition)": 0.814}, {"sequence": "CGCTTTTCTGTCTGGT (antisense; LNA-modified, pattern not given here) [CTNN2B-311 LNA KL]", "TLR9 100 nM (averaged NF-κB-Luciferase level relative to ODN2006 condition)": 0.827}, {"sequence": "CGGCCTCGGAAGCTCT (antisense; LNA-modified, pattern not given here) [MB21D1-168 LNA V1]", "TLR9 100 nM (averaged NF-κB-Luciferase level relative to ODN2006 condition)": 0.218}, {"sequence": "CGTATTATAGCCGATT (antisense; LNA-modified, pattern not given here) [NC1 LNA PS 3-10-3]", "TLR9 100 nM (averaged NF-κB-Luciferase level relative to ODN2006 condition)": 0.933}, {"sequence": "CTGCAGCTTCCTTGTC (antisense; LNA-modified, pattern not given here) [CTNN2B-2136 LNA V1]", "TLR9 100 nM (averaged NF-κB-Luciferase level relative to ODN2006 condition)": 0.358}, {"sequence": "CTTCGTGGGGTCCTTT (antisense; LNA-modified, pattern not given here) [HPRT LNA-662 V1]", "TLR9 100 nM (averaged NF-κB-Luciferase level relative to ODN2006 condition)": 0.557}, {"sequence": "CTTGAAGCATCGTATC (antisense; LNA-modified, pattern not given here) [CTNN2B-3648 LNA KL]", "TLR9 100 nM (averaged NF-κB-Luciferase level relative to ODN2006 condition)": 0.899}, {"sequence": "CTTGGCTTCGTGGAGC (antisense; LNA-modified, pattern not given here) [MB21D1-520 LNA V1]", "TLR9 100 nM (averaged NF-κB-Luciferase level relative to ODN2006 condition)": 0.596}, {"sequence": "GAAAGGTTATGCAAGG (antisense; LNA-modified, pattern not given here) [CTNN2B-916 LNA KL]", "TLR9 100 nM (averaged NF-κB-Luciferase level relative to ODN2006 condition)": 0.748}]}, {"target": "T1, human TLR9", "test": "HEK-TLR9 NF-κB-luciferase reporter, ODN2006 stimulation", "format": "cell-based", "settings": "ASO 500 nM; relative to ODN2006 only, given as fraction", "values": [{"sequence": "CATCCACCACGTCGTC (antisense; LNA-modified, pattern not given here) [EGFR-3266 LNA V1]", "TLR9 500 nM (averaged NF-κB-Luciferase level relative to ODN2006 condition)": 0.620}, {"sequence": "CCAACACTTCGTGGGG (antisense; LNA-modified, pattern not given here) [HPRT LNA-668 V1]", "TLR9 500 nM (averaged NF-κB-Luciferase level relative to ODN2006 condition)": 0.610}, {"sequence": "CCACATCCTGTGGCTC (antisense; LNA-modified, pattern not given here) [CAMSAP1-2906 LNA V1]", "TLR9 500 nM (averaged NF-κB-Luciferase level relative to ODN2006 condition)": 0.337}, {"sequence": "CCACTTGGCAGACCAT (antisense; LNA-modified, pattern not given here) [CTNN2B-1575 LNA V1]", "TLR9 500 nM (averaged NF-κB-Luciferase level relative to ODN2006 condition)": 0.111}, {"sequence": "CCAGCAGGTCAGCAAA (antisense; LNA-modified, pattern not given here) [HPRT LNA-388 KL]", "TLR9 500 nM (averaged NF-κB-Luciferase level relative to ODN2006 condition)": 0.149}, {"sequence": "CCCACTTGGCAGACCA (antisense; LNA-modified, pattern not given here) [CTNN2B-1576 LNA V1]", "TLR9 500 nM (averaged NF-κB-Luciferase level relative to ODN2006 condition)": 0.656}, {"sequence": "CCTCCCATCTCCTTCA (antisense; LNA-modified, pattern not given here) [HPRT LNA-326 V1]", "TLR9 500 nM (averaged NF-κB-Luciferase level relative to ODN2006 condition)": 0.727}, {"sequence": "CCTTGCACGTGGCTTC (antisense; LNA-modified, pattern not given here) [EGFR-1013 LNA V1]", "TLR9 500 nM (averaged NF-κB-Luciferase level relative to ODN2006 condition)": 0.519}, {"sequence": "CGCTTTTCTGTCTGGT (antisense; LNA-modified, pattern not given here) [CTNN2B-311 LNA KL]", "TLR9 500 nM (averaged NF-κB-Luciferase level relative to ODN2006 condition)": 0.178}, {"sequence": "CGGCCTCGGAAGCTCT (antisense; LNA-modified, pattern not given here) [MB21D1-168 LNA V1]", "TLR9 500 nM (averaged NF-κB-Luciferase level relative to ODN2006 condition)": 0.116}, {"sequence": "CGTATTATAGCCGATT (antisense; LNA-modified, pattern not given here) [NC1 LNA PS 3-10-3]", "TLR9 500 nM (averaged NF-κB-Luciferase level relative to ODN2006 condition)": 0.558}, {"sequence": "CTGCAGCTTCCTTGTC (antisense; LNA-modified, pattern not given here) [CTNN2B-2136 LNA V1]", "TLR9 500 nM (averaged NF-κB-Luciferase level relative to ODN2006 condition)": 0.263}, {"sequence": "CTTCGTGGGGTCCTTT (antisense; LNA-modified, pattern not given here) [HPRT LNA-662 V1]", "TLR9 500 nM (averaged NF-κB-Luciferase level relative to ODN2006 condition)": 0.240}, {"sequence": "CTTGAAGCATCGTATC (antisense; LNA-modified, pattern not given here) [CTNN2B-3648 LNA KL]", "TLR9 500 nM (averaged NF-κB-Luciferase level relative to ODN2006 condition)": 0.483}, {"sequence": "CTTGGCTTCGTGGAGC (antisense; LNA-modified, pattern not given here) [MB21D1-520 LNA V1]", "TLR9 500 nM (averaged NF-κB-Luciferase level relative to ODN2006 condition)": 0.371}, {"sequence": "GAAAGGTTATGCAAGG (antisense; LNA-modified, pattern not given here) [CTNN2B-916 LNA KL]", "TLR9 500 nM (averaged NF-κB-Luciferase level relative to ODN2006 condition)": 0.606}]}, {"target": "T1, human TLR9", "test": "HEK-TLR9 NF-κB-luciferase reporter, ODN2006 stimulation", "format": "cell-based", "settings": "HEK-TLR9; 100 nM MOE ASO 45 min; 200 nM ODN2006 (FIG. 30)", "values": [{"sequence": "ACACTTCGTGGGGTCCTTTT (antisense; 2'-MOE modified, pattern not given here) [HPRT-663 MOE]", "inhibition of TLR9, 2′MOE ASOs (in words)": "stronger inhibitor than 664/665 and 666 ASOs"}]}, {"target": "T1, human TLR9", "test": "HEK-TLR9 NF-κB-luciferase reporter, ODN2006 stimulation", "format": "cell-based", "settings": "MOE-modified ASO at 100 nM; averaged NF-κB-Luciferase relative to ODN2006 condition", "values": [{"sequence": "ACACTTCGTGGGGTCCTTTT (antisense; 2'-MOE modified, pattern not given here) [HPRT-663 MOE]", "TLR9 100 nM": 0.114}]}, {"target": "T1, human TLR9", "test": "HEK-TLR9 NF-κB-luciferase reporter, ODN2006 stimulation", "format": "cell-based", "settings": "MOE-modified ASO at 500 nM; averaged NF-κB-Luciferase relative to ODN2006 condition", "values": [{"sequence": "ACACTTCGTGGGGTCCTTTT (antisense; 2'-MOE modified, pattern not given here) [HPRT-663 MOE]", "TLR9 500 nM": 0.226}]}]}
